Measured values published in US6613756B2 (Wisconsin Alumni Research Foundation, priority 2000, dated 2003).
Structures can show the parent of a compound that is named as a salt.

What was measured:
collagenase = conditions: cited from earlier work
[1] = tested on: DA rats with MOG-induced EAE; assay: High-dose MOG (100 μg rMOG/IFA) immunization paradigm of EAE; format: in vivo, rat
Method: Statistical analysis of clinical scores was performed by averaging them over all times of the treatment and subtracting the first 11 days after immunization when clinical score in all groups was 0. Statistical significance was established using a repeated measures analysis where clinical score between treatments was compared from day 12 to 42 building in an auto-correlation of the error term. ANOVA and Student's t-test were used to establish the difference between experimental groups in all other examined parameters. […]

[2] = tested on: DA rats with MOG-induced EAE; assay: Low-dose MOG (10 μg rMOG/CFA) immunization paradigm of relapsing remitting EAE; format: in vivo, rat; conditions: for % Of Dorsal Column Demyelinated / % Of Mortality / Mean Cumulative Score / % Of Incidence: 10 μg rMOG/CFA
Method: Experiments were performed on 6-8 week old female DA rats obtained from Harlan-Sprague Dawley, Indianapolis, Ind. or Harlan-Winkelmann, Germany. During the observation period, rats were housed in a light- and temperature-controlled environment and were permitted free access to food and water. The recombinant extracellular immunogobulin domain of MOG was expressed in E. coli and purified as described previously (Raine, C. S., et al., Ann. Neurol. 46:144-160, 1999).
Rats were immunized sub-cutaneously (s.c.) at the base of the tail with either 10 μg MOG in complete Freund's adjuvant (CFA) or 100 μg MOG emulsified in incomplete Freund's adjuvant (IFA) (Difco, Detroit, Mich.) in a total volume of 100 μl. Animals were weighed and examined daily for clinical signs of EAE that was scored on the following scale: 0.5, partial loss of tail tone; 1, complete tail atony; 2, hind limb weakness; 3, hind limb paralysis; 4, moribund; 5, dead. […]
(§1) Matched unimmunized, naive groups were also included: N^pbs-PBS-treated animals (n=10), N^tr1-minocycline-treated from experimental day 10 (n=10), N^tr2-minocycline-treated from experimental day 13 (n=5), N^tr3 minocycline-treated from experimental day 13, with twice daily injections during the first two days followed by single injection throughout the remaining treatment period (n=5).
Animals were deeply anesthetized with pentobarbital and perfused transcardially with Ringer's followed by 4% paraformaldehyde. The brain and spinal cord were removed and prepared for paraffin and epon embedding or cryo-protected in 30% sucrose. Paraffin sections were used to assess the degree of inflammation (hematoxylin and eosin) and one-micron semithin sections were used to estimate the demyelination in the spinal cord (toluidine blue). Areas with inflammatory infiltrates or demyelinating lesions in the dorsal funiculus of spinal cord were scored using a CCD72 camera to collect digital images that were analyzed with the Microcomputer Imaging Device (MCID) software from Imaging Research Inc. (St. Catherines, Ontario). Measurements for cell infiltrates and demyelination were expressed as percent of the total white matter area of the dorsal funiculus. To determine the profile of inflammatory infiltrates within lesions 10 μm cryostat sections of thoracic-lumbar spinal cord were immunolabelled for MHC II (Harlan Sera-Lab), CR3, CD45 (Serotec), GFAP (Dako), CD3 (PharMingen) and MMP-2 (Oncogne Research Products) protein expression. Primary antibodies were detected using a biotinylated secondary antibodies and the avidin: biotin enzyme complex technique (Vector Laboratories). Areas with immunolabelling-defined inflammatory infiltrates were scored using a semi-quantitative scale: 0-no inflammatory infiltrates or lesions, 1-25%, 2-50%, 3-75%, and 4-100% of the dorsal funiculus.
Statistical analysis of clinical scores was performed by averaging them over all times of the treatment and subtracting the first 11 days after immunization when clinical score in all groups was 0. Statistical significance was established using a repeated measures analysis where clinical score between treatments was compared from day 12 to 42 building in an auto-correlation of the error term. ANOVA and Student's t-test were used to establish the difference between experimental groups in all other examined parameters. Statistically significant differences were presented as: * for P<0.05, ** for P<0.01, and *** for P<0.001.

[3] = tested on: MOG-specific T-cell response; assay: MOG-specific T-cell response of draining lymph node cells from treated rats; format: cell-based, rat; conditions: high-dose MOG; minocycline day 1 to 10; 10 d.p.i.
Method: Draining lymph nodes and spleens were removed 10 days post-immunization (d.p.i.) and proliferation assays performed in flat-bottomed 96-well tissue culture plates in a total volume of 200 μl using either 5×10^5 lymph node or spleen cells (Raine, C. S., et al., supra, 1999). Antigen specific proliferation was assessed by the incorporation of ^3H-thymidine (10 μCi/well) during the final 18 hours of a 72 hour culture period using a Packard Matrix 96 Direct Beta counter.

naive DA rats = assay: Minocycline treatment of naive, non-immunized animals; format: in vivo, rat
Text: In the high-dose MOG immunization paradigm rats were separated into two groups: EAE^pbs-phosphate-buffered saline (PBS)-treated rats (n=5) from day 1 post-immunization and EAE^tr-minocycline-treated rats (n=6) from day 1 post-immunization.
as §1

[4] = minocycline from day 10 (EAEtr1)
[5] = minocycline from day of onset (EAEtr2)
[6] = minocycline from day of onset, double-dose (EAEtr3)

Compound	anti-collagenase activity (collagenase)	% Of Incidence ([1]; minocycline 45 mg/kg i.p. daily from day 1, terminated day 20) [%]	% Of Dorsal Column Demyelinated ([1]; minocycline from day 1) [%]	Mean Cumulative Score ([1]; minocycline from day 1, sum of daily scores of all animals / number of animals)	% Of Mortality ([1]; minocycline from day 1, terminated day 20) [%]	% Of Dorsal Column Demyelinated [2, 4] [%]	% Of Mortality [2, 4] [%]	Mean Cumulative Score [2, 4]	% Of Incidence ([2]; minocycline from day 10 (EAEtr1), 42 days) [%]	% Of Dorsal Column Demyelinated [2, 5] [%]	% Of Incidence [2, 5] [%]	% Of Mortality [2, 5] [%]	Mean Cumulative Score [2, 5]	% Of Dorsal Column Demyelinated [2, 6] [%]	% Of Mortality [2, 6] [%]	Mean Cumulative Score [2, 6]	% Of Incidence ([2]; minocycline from day of onset, double-dose first two days (EAEtr3)) [%]	maximal clinical disease grade reached ([2]; twice daily for first two days from onset, then once daily (EAEtr3))	antigen specific proliferative response of draining lymph node cells [3]	adverse effects (naive DA rats)
CC1(O)c2cccc(O)c2C(=O)C2=C(O)C3(O)C(=O)C(C(N)=O)=C(O)CC3CC21 (stereo not drawn) [CMT-1, 4-dedimethylamino tetracycline]	persistent anti-collagenase activity																			
NC(=O)C1=C(O)C[C@@H]2C[C@@H]3Cc4cccc(O)c4C(=O)C3=C(O)[C@]2(O)C1=O [CMT-3, 6-demethyl 6-deoxy 4-dedimethylamino tetracycline]	persistent anti-collagenase activity																			
CN(C)c1ccc(O)c2c1C[C@H]1C[C@H]3[C@H](N(C)C)C(O)=C(C(N)=O)C(=O)[C@@]3(O)C(O)=C1C2=O [Minocycline, Minocycline hydrochloride]		80	6.25	5.5	0	5.94	0	7.43	40	0.12	100	0	26.25	0.04	0	10.12	100	≤ 1	no significant effect	not found to induce any adverse effects
